Measurements from US8952192B2, “Phosphorylated and branched dihydroxy-pentane-dione (DPD) analogs as quorum sensing inhibitors in bacteria” (University of Maryland, College Park, priority 2011, dated 2015).

Legend:
[1] = test system: lsr expression in E. coli (lsr-lacZ reporter strains); assay: QS response (lsr expression): AI-2 dependent β-galactosidase production, Miller assay; type: cell-based, Escherichia coli; settings: E. coli ZK126 pLW11 LW8 (luxS+, lsrR−), 20 μM analog
[2] = test system: pre-formed P. aeruginosa biofilms (PAO1); assay: Effects on pre-formed P. aeruginosa biofilms (microfluidic flow cell, COMSTAT, optical density); type: cell-based
Description: (§1) The E. coli biofilms were formed using the strain K-12 MG1655 ATCC(47076). P. aeruginosa biofilms were formed using wild type strain PAO1. For both strains, overnight cultures were diluted to an OD600 of 0.25, introduced into the microfluidic channel, and incubated with no flow at 37° C. for 2 h. LB (Luria Bertani) growth medium was then continuously flowed into the device at a rate of 10 μL/hr. As needed, this medium was supplemented with various concentrations of analog or antibiotic at specified times. In studies of biofilm inhibition, after 2 hours of cell incubation, the analog diluted in LB medium is flown into the microfluidic channel for 48 hours at 10 μL/hr. In studies of effects on pre-formed biofilms, LB is introduced over the cells at 10 μL/hr for a period of 36 to 48 hours to yield stable biofilms. Then, the analog or analog-antibiotic combination was introduced for an additional 36 to 48 hours.
(§2) Biofilms were stained in situ for microscopy. They were first treated with a Live/Dead bacterial labeling kit (Invitrogen #L7012) in which two labeling components were mixed in a 1:1 ratio to a final volume of 10 μL. The dye was introduced into the channel at 10 μL/hr, the same flow rate as during biofilm growth. This treatment was then followed by 10 μL/hr of a 100 μg/mL calcofluor (Fluorescence Brightener 28, Sigma #F3543) solution for labeling polysaccharides contained in the biofilm matrix. The dyes are fixed by flowing in 3% paraformaldehyde at the same flow rate.
(§3) Labeled samples are imaged using a confocal microscope (Zeiss LSM710). For unpatterned coverslips, Z-stacks were obtained at 7 points in each microfluidic channel, each stack was comprised of 150 slices. For patterned coverslips used while measuring the optical density of the biofilms, two stacks were obtained in each channel (i.e. one at each pinhole). The image stacks were analyzed using COMSTAT, which provides morphological characteristics. Average biofilm thickness and biomass were averaged over the image stacks obtained at each of these 7 data points in the microfluidic channel. Additionally, surface reconstructions of the biofilms were created using Imaris (Bitplane) to aid in visualization of the resulting structures.
(§4) The data corresponding to the change in optical density of the biofilms were obtained from the photodiodes using the standard methodologies. Data for each channel (the average of the response of the two photodiodes) was normalized with respect to the optical density at 48 hours; this method reflects that as of 48 hours, the biofilms have been grown under identical conditions although their optical density values may not be identical. Additionally, since the optical density data itself fluctuates as the biofilm grows, the data for each curve was fitted using a Churchill model (Churchill et al, 1972), represented by log N=[f1^−1+f2^−1]^−1 (1)

[3] = test system: pre-formed E. coli biofilms (K-12 MG1655); assay: Effects on pre-formed E. coli biofilms (microfluidic flow cell, COMSTAT, optical density); type: cell-based
Description: as §1, §2, §3, §4

[4] = test system: E. coli biofilms (K-12 MG1655); assay: Biofilm maturation in the presence of AI-2 analog (microfluidic flow cell, confocal microscopy, COMSTAT); type: cell-based
Description: as §1, §2, §3

E. coli W3110 pCT6 = assay: Trispecies synthetic ecosystem: AI-2 stimulated GFP expression, flow cytometry; type: cell-based; settings: trispecies co-culture, flow cytometry after 8 hours; 60.7% without analog
Description: (§5) To investigate the effect of the DPD analogs in a mixed bacterial environment, a synthetic ecosystem composed of three different bacterial populations was assembled. Specifically, S. typhimurium MET708, V. harveyi BB170 and E. coli W3110 (pCT6), each luxS^+ (Table 2), and each producing their native AI-2 were co-cultured in the same tubes. By design, each species was selected so that a different reporter probe would indicate the specific bacterium's QS response: S. typhimurium (MET708) expresses β-galactosidase; V. harveyi (BB170) elicits bioluminescience; and E. coli (W331) are engineered to synthesize GFP. In this way, their responses can be differentiated and quantified in response to AI-2.
(§6) The S. typhimurium MET708, V. harveyi BB170 and E. coli W3110 pCT6 were each cultured separately overnight in LM medium supplemented with the appropriate antibiotic. […] The V. harveyi luminescence response was measured after 2.5 hours. The S. typhimurium lacZ (β-galactosidase) activity was measured after 4 hours. The E. coli response was determined after 8 hours, by fixing the cells with 1:1 cold 4% paraformaldehyde and using flow cytometric analysis. Samples were analyzed by flow cytometery (FACS Canto II, BD 394 Biosciences), with 20,000 gated events analyzed per sample.

S. typhimurium = assay: DPD analogs and representative bacterial species affected (Table 1); type: cell-based; design: key: x: DPD Analogs and representative bacterial species affected
S. typhimurium MET708 = assay: Trispecies synthetic ecosystem (S. typhimurium, V. harveyi, E. coli): β-galactosidase activity; type: cell-based; settings: trispecies co-culture, lacZ activity after 4 hours
Description: as §5, §6

V. harveyi BB170 = assay: QS response (bioluminescence), trispecies synthetic ecosystem; type: cell-based; settings: 40 μM, LM media
Description: The effect of isobutyl-DPD or isopropyl-DPD on QS associated bioluminescence production by V. harveyi was recorded by measuring the light production from reporter strain, V. harveyi BB170. The analogs were added at concentrations of (20 μM or 40 μM) to V. harveyi BB170 which was assayed as previously described.
The S. typhimurium MET708, V. harveyi BB170 and E. coli W3110 pCT6 were each cultured separately overnight in LM medium supplemented with the appropriate antibiotic. V. harveyi BB170, S. typhimurium MET708 and E. coli MDAI-2 were diluted (1:4:8), respectively, into a single 1 ml volume of fresh LM medium without antibiotics. The co-culture was supplemented with either 20 μM or 40 μM analog initially and again after 3 and 5 hours of growth. The V. harveyi luminescence response was measured after 2.5 hours. The S. typhimurium lacZ (β-galactosidase) activity was measured after 4 hours. The E. coli response was determined after 8 hours, by fixing the cells with 1:1 cold 4% paraformaldehyde and using flow cytometric analysis. Samples were analyzed by flow cytometery (FACS Canto II, BD 394 Biosciences), with 20,000 gated events analyzed per sample.

V. harveyi = assay: DPD analogs and representative bacterial species affected (Table 1); type: cell-based; design: key: x: DPD Analogs and representative bacterial species affected
[5] = 100 μM isobutyl-DPD combined with gentamicin 5 μg/ml

O=C(C(=O)C(O)CO)c1ccccc1 (centres unmarked) [Phenyl-DPD, Phenyl DPD]
difference in lsr expression versus control in lsrR null mutant [1]: exception | biofilm reduction ([2]; 100 uM phenyl DPD alone): about 40% | biofilm reduction ([2]; gentamicin and 100 uM phenyl DPD combined): ~100% | biofilm biomass ([2]; phenyl-DPD 100 μM combined with gentamicin 5 μg/ml, untreated 15 μm^3/μm^2): < 2 μm^3/μm^2 | biofilm thickness ([2]; phenyl-DPD 100 μM combined with gentamicin 5 μg/ml, untreated 26 μm): 2 μm | course of biofilm optical density after 48 h, in words ([2]; phenyl-DPD combined with gentamicin, continuous optical density measurement): reversed biofilm growth

CC(C)CC(=O)C(=O)[C@@H](O)CO [Isobutyl-DPD, isobutyl-DPD]
average biofilm thickness ([3]; 40 μM isobutyl-DPD combined with gentamicin 5 μg/ml): 6 μm | average biofilm thickness [3, 5]: 2 μm | effect on biofilm biomass, in words [3, 5]: nearly complete removal of biomass | reduction in biofilm thickness [3, 5]: more than 80% | course of biofilm optical density after 48 h, in words ([3]; isobutyl-DPD combined with gentamicin, continuous optical density measurement): reversed biofilm growth | average biofilm biomass ([4]; 40 μM, 48 h, LB only 14 μm^3/μm^2): 3.5 μm^3/μm^2 | average biofilm thickness ([4]; 40 μM, 48 h, LB only 22 μm): 7 μm | inhibition of biofilm growth ([4]; 40 μM, 48 h continuous exposure in LB): ~70% | effect on biofilm thickness of increasing concentration, in words ([4]; 100 μM versus 40 μM): no further inhibitory effect | QS positive (green, GFP) cells of the E. coli population after analog addition (E. coli W3110 pCT6): 0.7% | bacterial species affected: S. typhimurium (S. typhimurium): x | decrease of S. typhimurium β-galactosidase activity (S. typhimurium MET708): 4 fold | decrease of bioluminescence in V. harveyi (V. harveyi BB170): 33% | bacterial species affected: V. harveyi (V. harveyi): x
